The record followed here is a melting point compilation (Tetko et al.; mined from patent text by program, amines drawn as free bases though some values may be those of a salt).

Usually melting point stands for the temperature, or range, at which the solid turns liquid.

Some results are limits rather than exact numbers.

The molecule `Cn1ncc2[nH]c3ccc(Cc4ccc(C#N)cc4)cc3c(=O)c21` yielded a melting point of 291 °C.
In turn, `CCCCN(CCCC)c1ccc(C=CC=Cc2ccc(C=CC3=C(C#N)C(=C(C#N)C#N)OC3(C)C)s2)c(OC)c1` came in with a melting point of 185 to 187 °C.
Regarding `Clc1ncccc1-c1ccccn1`, the melting point came out at 50 °C.
In the case of `CS(=O)(=O)CC(=O)NCCn1ccc2ncnc(Nc3ccc(Oc4cccc(Cl)c4)c(Cl)c3)c21` it was 206 to 207 °C; in that of `CCOC(=O)N1CCC(NC(=O)c2ccccc2)C12CCCCC2` (stereo not drawn), 132 to 133 °C.
In the case of `Cc1ccc2c(c1)c(=O)c(CO)cn2C` it was 171 to 173 °C; in that of `C[C@@H](O)[C@H](CN)C(=O)O`, 120 to 123 °C; in that of `O=C(NCC#Cc1ccc(C#CCNC(=O)OCc2ccccc2)nc1)OCc1ccccc1`, 156 to 158 °C.
In the case of `COc1ccccc1S(=O)(=O)c1ccc2c(c1)[C@@H](N1CCCC1=O)[C@H](O)C(C)(C)O2` (relative stereo) it was 196 to 198 °C; in that of `O=C(c1cccc(Cl)c1)c1ccccc1Nc1ncccc1[N+](=O)[O-]`, 124 to 125 °C.
As for `NS(=O)(=O)c1cccc(NC(=O)c2cnn3c(C(F)F)cc(-c4ccc(OC(F)(F)F)cc4)nc23)c1`, the melting point is 231 °C.
As to `COC(=O)c1ccc(-c2ccc3cc(OCc4ccc(F)cc4)c(C45CC6CC(CC(C6)C4)C5)cc3c2)cc1O`, the melting point was in the range of 189 to 191 °C.
Take `O=C(CCC1CCCCCCCCCCC1)C1=C(O)CSC1=O`: the melting point was 60 to 62 °C.
In turn, `Cc1c(O)c(C(C)(C)C)cc2c1CCC1C2CCC2(C)C(=O)CCC12` (stereo not drawn) came in with a melting point of 190 to 192 °C.
In turn, `CNCC(O)c1ccc(CO)cc1` (stereo not drawn) displayed a melting point of 80 to 81 °C.
As for `Cc1ccc(C2=CCN(CCCc3nnc4n3CCCCC4)CC2)cc1`, the figure is 93 to 96 °C.
For the molecule `Cc1nc2cnccc2n1-c1ccc(Cn2nnc3ccccc32)cc1`, the melting point is 126 to 127 °C.
Take `CCCc1nn(-c2ccc(C(F)(F)F)cn2)cc1CCCOc1nn(-c2ccccc2)cc1CC(=O)O`: the melting point fell in the range of 123 to 124 °C.
Molecule `COc1ccc2nc(OC)cc(CCNC(C)=O)c2c1` yielded a melting point of 119 to 121 °C.
With `CC(Cc1c[nH]c2ccccc12)C1=CCNCC1` (stereo not drawn), the melting point amounted to 125 °C.
`O=C(Cc1c(-c2ccccc2)c2cc(CN3CCN(c4ccccc4)CC3)c(Cl)cc2oc1=O)Nc1ccc(Cl)cc1C(F)(F)F` showed a melting point of 201 to 203 °C.
As for `Cc1ccc(/C=C/C2=CCN(Cc3c[nH]c4ncccc34)CC2)cc1`, the melting point fell in the range of 209 to 212 °C.
As to `Fc1ccc(Cn2c(NC3CCN(CCc4cnccn4)CC3)nc3ccccc32)cc1`, the melting point is 165 °C.
`O=C(O)CCc1ccc(OCc2ccccc2)cc1OCc1ccccc1` yielded a melting point of 125 to 127 °C.
`CS(=O)(=O)c1cc(C(F)(F)F)ccc1C(=O)CC(=O)C1CC1` came in with a melting point of 123 to 125 °C.
As for `CC1(C)CC(N2CCCCCC2=O)CC(C)(C)N1CCO`, the figure is 141 to 142 °C; as for `CCCC=Cc1c(C(C)C)nc(C(C)C)c(CO)c1-c1ccc(F)cc1F`, 59 to 62 °C; as for `CCC1(C(NC(=O)c2ccc(Cl)cc2)NC(=NC#N)Nc2cccnc2)COCOC1` (stereo not drawn), 194 to 195 °C.
For `COc1ccc(Nc2cc(-c3ccncc3)nc3ccccc23)cc1Cl`, the melting point fell in the range of 280 to 282 °C.
For `O=C(N[C@H]1CC[C@H](N2CCN(c3ccccn3)CC2)CC1)c1ccccc1`, the melting point is 241 to 244 °C.
`N#CCCNC(=O)c1cccc(-c2ccc3c(n2)C(Oc2ccc(Cl)cc2Cl)CC3)c1` (stereo not drawn) came in with a melting point of 193 to 194 °C.
With `O=C1c2ccccc2-c2c1c(N1CCN(c3ccccn3)CC1)nc1ccc(Br)cc21`, the melting point was in the range of 186 to 188 °C.
In turn, `O=S(=O)(CC(O)(CBr)c1ccccc1)c1ccccc1` (stereo not drawn) returned a melting point of 91 °C.
`CCCc1c(C(=O)C(C)C)c2ccc(C(N)=O)cc2n1Cc1ccc(F)cc1Cl` gave a melting point of 192 to 193 °C.
`O=C(ON1C(=O)CCC1=O)c1cccnc1` came in with a melting point of 129 to 131 °C.
In the case of `CC1(C2CCC3C4CC=C5CC(O)CC(O)C5(C)C4CCC32C)OCCO1` (stereo not drawn) it was 203 to 207 °C; in that of `Cc1nc(N2CCN(Cc3ccccc3)C2=NC#N)sc1C(=O)NCc1ccccc1`, 226 to 228 °C; in that of `CCOC(=O)CCc1cn(CCc2ccc(OCc3nc(-c4ccccc4)oc3C)cc2)nc1-c1ccccc1`, 81 to 82 °C.
Molecule `CCC1CC(=O)C2Oc3c(OC)ccc4c3C23CCN(C#N)C(C4)C13` (stereo not drawn) gave a melting point of 212 to 217 °C.
In the case of `O=C(CNC(=O)OC(c1ccccc1)c1ccccc1)Oc1c(Cl)c(Cl)c(Cl)c(Cl)c1Cl` it was 171 to 172 °C; in that of `c1ccc(-c2ccc(OCC3CO3)cc2)cc1` (stereo not drawn), 80.2 to 82.9 °C.
In turn, `CCOC(=O)/C=C/c1cn(Cc2cc(OCc3ccccc3)cc(OCc3ccccc3)c2)cc1-c1ccccc1` registered a melting point of 98 to 99 °C.
As for `COc1cccc2c(O)c(C)c(C)nc12`, the figure is above 290 °C; as for `CC(=O)OC1CSC(Oc2cccc(-c3ccnc(F)c3)c2)C(OC(C)=O)C1OC(C)=O` (stereo not drawn), 117 °C; as for `FC(F)(F)c1cccc(C2=CCN(CCc3ccc4cc[nH]c4c3)CC2)c1`, 168 to 169 °C.
In the case of `CCCCCCCNC(=O)Nc1ccccc1C(=O)Nc1c(C(C)C)cccc1C(C)C` it was 123 to 125 °C.
As for `CCCCCCCNC(=O)Nc1ccc(O)cc1C(=O)NCCC(c1ccccc1)c1ccccc1`, the figure is 161 to 162 °C.
As to `CCOCc1nc2cnc3cc(Br)ccc3c2n1CCN1CCN(C(=O)OC(C)(C)C)CC1`, the melting point fell in the range of 140 to 143 °C.
`Cc1ccc(NC(C)CC(=O)NC(=O)OC(C)(C)C)cc1` (stereo not drawn) showed a melting point of 84 to 85 °C.
As for `CS(=O)(=O)NCCCCCCCCCCCCn1c2c(c3ccccc3c1=O)C(=O)c1ccccc1-2`, the figure is 113 to 117 °C; as for `CCCCOCCOc1ccc(-c2ccc(N3CCCCCC3)c(C=CC(=O)O)c2)cc1`, 135 to 138 °C.
`O=C1CCC(=O)N1Cc1nc2sc3c(c2c(-c2ccc(Cl)cc2)c1Cl)CCNC3` displayed a melting point of 230 to 231 °C.
In the case of `CN1CC(CCCl)Oc2c(ccc3ccccc23)C1=S` (stereo not drawn), the melting point lay within 167 to 170 °C.
As for `Cc1ccc(C2(CC(=O)O)CNC(=O)C2)c(C)c1` (stereo not drawn), the figure is 225 to 230 °C; as for `Nc1ccc2cccc(N3CCNCC3)c2c1`, 184 to 186 °C; as for `Cc1noc(NC(=O)N2CCN(c3nccc(-c4cccc(F)c4F)n3)CC2)c1C`, 193 to 194 °C.
As for `CCCOC(C)c1ccc(O)cc1` (single isomer, unassigned; (+)), the figure is 61 to 63 °C; as for `COC(=O)c1cc2ccc(C(=O)NC(CO)CO)cc2[nH]1`, 205 to 207 °C; as for `Cc1ccc(S(=O)(=O)N2N=C(c3ccccc3)CC3CC=CC32)cc1` (stereo not drawn), 163 to 165 °C.
The molecule `COc1cc(C(=O)NS(=O)(=O)c2ccccc2C)ccc1Cc1cccc2ccc(CCCC(=O)N3CCOCC3)cc12` displayed a melting point of 100 to 102 °C.
As to `Nc1cccc2ccc(OCC3CC3)cc12`, the melting point lay in the range of 49 to 50 °C.
For `N#Cc1cc(F)c(N(CCO)CCO)c(F)c1`, the melting point lay within 63 to 65 °C.
Molecule `C[C@H](CSC(=O)c1ccccc1)C(=O)N1C(=O)N(C)C[C@H]1C(=O)OC(C)(C)C` registered a melting point of 128 °C.
In the case of `CC1(C)C(=O)Nc2ccc(-c3ccc(C#N)[nH]3)cc21` it was 256 to 258 °C.
Regarding `O=C(c1ccccc1)C(O)n1cncc1Cl` (stereo not drawn), the melting point lay within 201 to 203 °C.
On to `CCCOc1cccc(CO)c1I`, for which the melting point fell in the range of 75 to 75.5 °C.
The molecule `Cn1cc(C(=O)Nc2ccccc2-c2ccc(F)c(Cl)c2)c(CF)n1` had a melting point of 133 to 134 °C.
For the molecule `C[C@@H]1Cc2ccsc2[C@H](C)N1CCNC(=O)c1ccc(F)cc1` (relative stereo), the melting point lay in the range of 110 to 114 °C.
For the molecule `C#CCn1c2ccc(Br)cc2c2cc(Br)ccc21`, the melting point was in the range of 193 to 194 °C.
As for `CN(CCO)c1nc(-c2ccc(Cl)c(C(=O)NCC34CC5CC(CC(C5)C3)C4)c2)ccc1C(=O)O`, the figure is 121 to 124 °C; as for `CNNC(=O)OC(C)(C)C`, 50 °C; as for `CC1(C)CC(N(C=O)CCCCCCN(C=O)C2CC(C)(C)NC(C)(C)C2)CC(C)(C)N1`, 155 °C.
`COC(=O)c1nc(NC(C)=O)sc1-c1ccc(SC)cc1` gave a melting point of 253 to 254 °C.
In turn, `COc1ccnc(CSc2nc3cc(F)c(F)cc3[nH]2)c1C` displayed a melting point of 216 to 218 °C.
Molecule `COCCNC(=O)c1cccc(-c2ccc3c(c2)C(c2cc(Cl)ccc2Cl)CC3)c1` (stereo not drawn) yielded a melting point of 116 °C.
`Cc1csc2nc(S(=O)(=O)Nc3cccc4sccc34)nn12` displayed a melting point of 205 to 209 °C.
`COC(=O)c1ccc(NC(C)=O)cc1OC` displayed a melting point of 130 to 132 °C.
`CCOc1cccc(NC(=O)NC2N=C(c3ccccc3F)c3ccccc3N(CC(=O)N3CC4CCC(CC4)C3)C2=O)c1` (stereo not drawn): the melting point fell in the range of 158 to 166 °C.
In the case of `Nc1nc(N)c2ncn(COC(CO)CO)c2n1`, the melting point is 176 to 177 °C.
Consider `Cc1oc2cc(O)ccc2c(=O)c1C(=O)O`, for which the melting point fell in the range of 286 to 287 °C.
As for `CCC(CC)c1ccc(Cl)c2nc3n(c12)CCCCN3c1ccc(C)cc1Br`, the melting point was 152 to 155 °C.
As for `CCCCCCCC[C@]1(C)OO[C@@H]2C[C@H]1CC(=O)[C@@H]2C`, the figure is 27 °C.
With `COc1ccc2c(c1)CCn1ncnc1C2=C1CCN(C)CC1`, the melting point was found to be 166 °C.
As for `CC(=O)c1sc(N2CCN(CC3CC3)C2=O)nc1C`, the figure is 103 to 104 °C; as for `CN(CCNC(N)=N[N+](=O)[O-])c1ccc(Cl)nc1`, 119 to 122 °C; as for `COc1cc(C=CC#N)cc(OC)c1OC`, 92.1 °C.
Molecule `C=CC(C)(O)C=CC1=C(C)C(=O)C(OC(C)(C)OC)CC1(C)C` (stereo not drawn) showed a melting point of 47.5 to 49 °C.
The molecule `O=C(CCc1ccccc1)c1cccnc1Oc1ccc(F)cc1` showed a melting point of 82 to 83 °C.
